{
  "source": "paper PMC4349623",
  "about": "(BMC Biochemistry, 2015)",
  "key": {"[1]": {"assay": "ANS steady-state fluorescence (hydrophobicity probe)", "type": "biochemical", "conditions": "for ANS fold enhancement: pH 7.5, 0.1 M NaCl, 2 mM Ca^2+", "excerpt": "It is well known that the exposure of the hydrophobic patches of CaM is essential for target protein recognition. Such hydrophobic exposure can be photometrically monitored by its interaction with extrinsic 1-anilinonaphthalene 8-sulfonate (ANS) and 2-p-toluidinyl-naphthalene-6-sulfonate (TNS) molecules. These two fluorophores have been widely used as a probe for measuring hydrophobicity. ANS is a fluorescent dye which emits very weak fluorescence in water due to its excited charge transfer (CT) state that is quenched easily by water molecules. […] ANS fluorescence increases dramatically in a hydrophobic environment or when the rotational motion of its phenylamino group is restricted. […] The fluorescence increased when Ca^2+ was included in the mixture.\nANS fluorescence was excited at 350 nm.\nAbsorption measurements were carried out using a UV-1800 double-beam spectrometer (Shimadzu, Kyoto, Japan). The fluorescence spectra were recorded on a FluoroMax-3P (Horiba Scientific) equipped with a temperature control unit. For intrinsic Trp fluorescence, the excitation wavelength of 295 nm was chosen. […] The samples containing ANS or dansyl-labeled proteins were excited at 350 and 370 nm, respectively. The slit widths of 2 and 5 nm were typically chosen for excitation and emission, respectively, to eliminate photobleaching."}, "[2]": {"assay": "ANS binding by isothermal titration calorimetry", "conditions": "30 mM Hepes, 25°C", "excerpt": "The heat evolved is proportional to the amount of the ANS/Ca^2+-CaM complex formation. […] We fit the data with “one set of sites” to obtain the apparent association binding constant (Kapp) of 2.10 ± 0.11 × 10^3 M^−1 for Ca^2+-CaM (Table 1), consistent with a previous report. […] Based on our studies, the middle point from the ITC thermogram (and the inflection point in the corresponding derived binding isotherm) indicates approximately 4–6 bound-ANS molecules in Ca^2+-CaM. Therefore, Kapp is proportional to the actual number of protein-bound ANS molecules in the experimental condition. In the text below, we will discuss Kapp as the ANS binding affinity for simplicity.\nThe ITC data were fit with a “one set of sites” model as described in the Experimental section.\nThe ITC experiments were carried out on a VP-ITC (GE, Pittsburgh, PA). Protein samples were buffer-exchanged to the desired buffer. Peptide concentration was prepared by adding buffer to the peptide powder as measured by weight. All samples were degassed 15–30 min before loading. To avoid buffer mismatch, the syringe and sample cells were rinsed with the desired buffer prior to sample loading. A typical titration was performed by sequential injections every 120–180 sec of 5–10 μL solution at 25°C. The ITC raw data was corrected for the heat of titrant dilution determined by an experiment conducted in identical conditions except that no protein was contained in the sample cell. The corrected data, after integration of heat evolved, was fitted with Origin software provided by the manufacturer to determine Ka and the observed or apparent ΔH (ΔHapp)."}, "[3]": {"assay": "Far-UV circular dichroism", "conditions": "Ca^2+-bound, 0.1 mg/ml protein, 10 mM Tris, pH 7.5"}, "CaM": {"system": "CaM", "assay": "Stern-Volmer quenching of CaM-bound ANS by acrylamide", "excerpt": "Given that steady state fluorescence cannot differentiate the intensity contribution from individual ANS molecules, we utilized time-correlated single-photon counting (TCSPC) spectrometry to measure the ANS fluorescence decay. […] The data was best fit with a three-exponential-decay function. The shortest lifetime (τ3 = ~0.3 ns) was assigned to that of free ANS molecules, which was confirmed by using an ANS solution alone. Note that this lifetime reaches the detection limitation of our instrument and therefore, it cannot be determined precisely. […] The fitting also provided the fractional (or relative amplitude), fs, which weights the “amount” of the emitting species, and the normalized pre-exponential value, Bs, which provides the relative concentration of each species. […] In other words, the long lifetime component of ANS is one order less quenched by acrylamide.\nFor a quenching that is purely by collision, the steady-state and lifetime Stern-Volmer quenching equation can be expressed as4 <τo>/<τ>=1+KsvQandKsv=kqxτ0 where τ and τo are the lifetime in the presence and absence of the quencher, and kq is the quenching rate constant."}, "[4]": {"molecular_target": "CaM(1TnC): domain 1 of TnC and domains 2, 3 and 4 of CaM", "assay": "ITC; 1 mM Orai-CMBD titrated into 30 uM CaM or chimera; 10 mM Tris, pH 7.5, 0.1 M NaCl, 2 mM Ca2+, 25°C; 'one set of sites' or two sequential binding sites model"}, "dansyl-labeled CaM(1TnC)": {"molecular_target": "dansyl-labeled CaM(1TnC)", "assay": "stopped-flow fluorescence (dissociation chase); 5 uM dansyl-labeled CaM or chimera with 15 uM Orai-CMBD, 2 mM Ca2+, mixed with 75 uM unlabeled CaM, 2 mM Ca2+; dansyl fluorescence decay (excitation 370 nm), single exponential fit"}, "[5]": {"conditions": "ref [13]; cited from earlier work", "excerpt": "It is well known that the exposure of the hydrophobic patches of CaM is essential for target protein recognition. Such hydrophobic exposure can be photometrically monitored by its interaction with extrinsic 1-anilinonaphthalene 8-sulfonate (ANS) and 2-p-toluidinyl-naphthalene-6-sulfonate (TNS) molecules. These two fluorophores have been widely used as a probe for measuring hydrophobicity. ANS is a fluorescent dye which emits very weak fluorescence in water due to its excited charge transfer (CT) state that is quenched easily by water molecules."}, "[6]": {"conditions": "no reference given; cited from earlier work", "excerpt": "(§1) Given the structural similarities and functional differences of CaM an ..."}, "Ca^2+-ATPase": {"system": "Ca^2+-ATPase", "conditions": "ref [13]; cited from earlier work", "excerpt": "as §1"}, "nNOS": {"system": "nNOS", "conditions": "ref [12]; cited from earlier work", "excerpt": "as §1"}},
  "data": [
    {"compound": "Calmodulin [CaM]", "values": [
      {"measurement": "increase of ANS fluorescence intensity on Orai-CMBD binding", "setting": "[1]; Ca^2+-bound protein", "value": "~ 10%"},
      {"measurement": "ANS fluorescence change", "setting": "[1]; absence of Ca^2+", "value": "exhibited no change"},
      {"measurement": "ANS enhancement", "setting": "[1]; in the absence of salt, 30 mM Hepes, pH 7.5, 2 mM Ca^2+, spectra integration vs apo protein, at least three repeats, three protein batches", "value": "3.01 ± 0.12", "unit": "fold"},
      {"measurement": "ANS fold enhancement", "setting": "[1]; in the presence of salt and Orai-CMBD, 30 mM Hepes, vs apo protein", "value": "3.87 ± 0.10", "unit": "fold"},
      {"measurement": "ANS fold enhancement", "setting": "[1]; in the presence of salt, 30 mM Hepes, spectra integration vs apo protein", "value": "3.49 ± 0.07", "unit": "fold"},
      {"measurement": "K app", "setting": "[2]; in the absence of salt, pH 7.5, 2 mM Ca^2+, apparent association constant, one set of sites", "value": "2.10 ± 0.11 × 10^3 M^−1"},
      {"measurement": "K app", "setting": "[2]; in the presence of salt and Orai-CMBD, pH 7.5, 0.1 M NaCl, 2 mM Ca^2+", "value": "3.43 ± 0.65 × 10^3 M^−1"},
      {"measurement": "K app", "setting": "[2]; in the presence of salt, pH 7.5, 0.1 M NaCl, 2 mM Ca^2+, apparent association constant", "value": "3.69 ± 0.08 × 10^3 M^−1"},
      {"measurement": "ellipticity ratio θ220/θ209", "setting": "[3]", "value": "~ 1"}
    ]},
    {"compound": "O=S(=O)(O)c1cccc2cccc(Nc3ccccc3)c12", "note": "[ANS, 1-anilinonaphthalene 8-sulfonate]", "values": [
      {"measurement": "kq (quenching rate constant), short lifetime", "setting": "CaM; τ1 ANS", "value": "2.2e+08", "unit": "M⁻¹ s⁻¹"},
      {"measurement": "kq (quenching rate constant), τ2", "setting": "CaM; τ2 ANS", "value": "1.9e+07", "unit": "M⁻¹ s⁻¹"}
    ]},
    {"compound": "Orai-CMBD, 24-residue peptide corresponding to the CaM-binding domain of Orai1 (residues 68-91)", "values": [
      {"measurement": "Ka1 (first of two sequential sites)", "setting": "[4]", "value": 757000, "unit": "M⁻¹"},
      {"measurement": "Ka2 (second of two sequential sites)", "setting": "[4]", "value": 17000, "unit": "M⁻¹"},
      {"measurement": "dH1 (first of two sequential sites)", "setting": "[4]", "value": -4.99, "unit": "kcal/mol"},
      {"measurement": "dH2 (second of two sequential sites)", "setting": "[4]", "value": -3.33, "unit": "kcal/mol"},
      {"measurement": "stoichiometry N", "setting": "[4]", "value": 2},
      {"measurement": "koff", "setting": "dansyl-labeled CaM(1TnC)", "value": 2.44, "unit": "s⁻¹"}
    ]},
    {"compound": "Troponin C [TnC]", "values": [
      {"measurement": "interaction with ANS", "setting": "[5]", "value": "no interaction between TnC and ANS"},
      {"measurement": "Ca^2+ affinity of EF4 relative to that of CaM", "setting": "[6]", "value": "one order higher"},
      {"measurement": "affinity for Ca^2+-ATPase", "setting": "Ca^2+-ATPase", "value": "very low affinity"},
      {"measurement": "binding to / activation of nNOS", "setting": "nNOS", "value": "can neither bind to nor activate nNOS"}
    ]}
  ]
}
